Source: patent US8058437B2, “(Pyrroloquinoxalinyl) pyrazinecarbohydrazide-oxalic acid co-crystal for treatment of cancer and other diseases” (Novelix Pharmaceuticals, Inc., priority 2008, dated 2011)

Assay: Salt formation experiments / physical characteristics of solid forms
Assay type: physicochemical
Conditions: solid hydrochloride salt
Experimental: Thus, a series of experiments was conducted to assess the preparation of NVX-144 salts of acids other than hydrochloric acid as possible novel compounds better suited to pharmaceutical preparations. […] As expected, NVX-144 base readily formed salts with strong organic acids.
Although oxalic acid co-crystals are rare, Trask et al. have reported a co-crystal of caffeine with oxalic acid (see Trask et al., “Pharmaceutical Cocrystallization: Engineering a Remedy for Caffeine Hydration,” Crystal Growth & Design, 5, 1013-21 (2005)).
Thus NVX-144 would not be expected to form a salt with oxalic acid, a relatively strong dicarboxylic acid.

## Cl.O=C(NNc1nc2cc(F)ccc2n2cccc12)c1cnccn1 [NVX-144.HCl, N′-(7-fluoropyrrolo[1,2a]quinoxalin-4-yl)pyrazine-2-carbohydrazide hydrochloride]
  physical characteristics of crystals: fluffy, statically-charged, hygroscopic crystals
